# Results as given in PubChem BioAssay (NCI).
#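 Tested at 5 concentrations; 48 h exposure; 96-well plates; endpoints linearly interpolated, else capped at highest concentration. TGI: concentration producing complete growth inhibition.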
# Key:
# Experiment in all cases: NCI-60 cell line screen, 48 h
# [1] = test system: MDA-MB-231 breast
# [2] = test system: OVCAR-5 ovarian
# [3] = test system: UACC-257 melanoma
# [4] = test system: HCT-15 colon
# [5] = test system: HS 578T breast
# [6] = test system: COLO 205 colon
# [7] = test system: MDA-MB-435
# [8] = test system: NCI/ADR-RES ovarian
# [9] = test system: MALME-3M melanoma
# [10] = test system: TK-10 renal
# [11] = test system: MCF7 breast
# [12] = test system: OVCAR-8 ovarian
# [13] = test system: A549 NSCLC
# [14] = test system: HT29 colon
# [15] = test system: HCT-116 colon
# [16] = test system: NCI-H226 lung
# [17] = test system: K-562 leukemia
# [18] = test system: KM12 colon
# [19] = test system: M14 melanoma
compound,measurement,setting,value
O=c1oc2ccccc2c(-c2ccc(O)cc2)c1Oc1ccc(Cl)cc1,TGI,[1],90.6 µM
same,TGI,[2],> 100 µM
same,TGI,[3],83.8 µM
same,TGI,[4],> 100 µM
same,TGI,[5],> 100 µM
same,TGI,[6],56.2 µM
same,TGI,[7],> 100 µM
same,TGI,[8],82.3 µM
same,TGI,[9],55 µM
same,TGI,[10],62.1 µM
same,TGI,[11],72.3 µM
same,TGI,[12],69.7 µM
same,TGI,[13],47.3 µM
same,TGI,[14],64.1 µM
same,TGI,[15],35.6 µM
same,TGI,[16],86.3 µM
same,TGI,[17],72.1 µM
same,TGI,[18],> 100 µM
same,TGI,[19],39 µM
CCOC(=O)CCC(NC(=O)N1CCN(c2c(C)nc(C)[nH]c2=O)CC1)C(=O)OCC (stereo not drawn),TGI,[1],> 100 µM
same,TGI,[2],> 100 µM
same,TGI,[3],> 100 µM
same,TGI,[4],> 100 µM
same,TGI,[5],> 100 µM
same,TGI,[6],> 100 µM
same,TGI,[7],> 100 µM
same,TGI,[8],> 100 µM
same,TGI,[9],> 100 µM
same,TGI,[10],> 100 µM
same,TGI,[11],> 100 µM
same,TGI,[12],> 100 µM
same,TGI,[13],> 100 µM
same,TGI,[14],> 100 µM
same,TGI,[15],> 100 µM
same,TGI,[16],> 100 µM
same,TGI,[17],> 100 µM
same,TGI,[18],> 100 µM
same,TGI,[19],> 100 µM
CCOP(=O)(OCC)/C(=C/c1ccccc1)CC(C)=O,TGI,[1],> 100 µM
same,TGI,[2],> 100 µM
same,TGI,[3],> 100 µM
same,TGI,[4],> 100 µM
same,TGI,[5],> 100 µM
same,TGI,[6],> 100 µM
same,TGI,[7],> 100 µM
same,TGI,[8],> 100 µM
same,TGI,[9],> 100 µM
same,TGI,[10],> 100 µM
same,TGI,[11],> 100 µM
same,TGI,[12],> 100 µM
same,TGI,[13],> 100 µM
same,TGI,[14],> 100 µM
same,TGI,[15],> 100 µM
same,TGI,[16],> 100 µM
same,TGI,[17],> 100 µM
same,TGI,[18],> 100 µM
same,TGI,[19],> 100 µM
NC(=O)ON=C1CCN(Cc2ccccc2)CC1,TGI,[1],> 100 µM
same,TGI,[2],> 100 µM
same,TGI,[3],> 100 µM
same,TGI,[4],> 100 µM
same,TGI,[5],> 100 µM
same,TGI,[6],> 100 µM
same,TGI,[7],> 100 µM
same,TGI,[8],> 100 µM
same,TGI,[9],> 100 µM
same,TGI,[10],> 100 µM
same,TGI,[11],> 100 µM
same,TGI,[12],> 100 µM
same,TGI,[13],> 100 µM
same,TGI,[14],> 100 µM
same,TGI,[15],> 100 µM
same,TGI,[16],> 100 µM
same,TGI,[17],> 100 µM
same,TGI,[18],> 100 µM
same,TGI,[19],> 100 µM
C#CCn1c(=O)c(C)cn(/C(=C/C(=O)OCC)C(=O)OCC)c1=O,TGI,[1],36.3 µM
same,TGI,[2],16 µM
same,TGI,[3],28.8 µM
same,TGI,[4],4.07 µM
same,TGI,[5],30 µM
same,TGI,[6],> 22.7 µM
same,TGI,[7],20.5 µM
same,TGI,[8],10.6 µM
same,TGI,[9],4.07 µM
same,TGI,[10],4.29 µM
same,TGI,[11],13.7 µM
same,TGI,[12],5.56 µM
same,TGI,[13],32.4 µM
same,TGI,[14],4.88 µM
same,TGI,[15],13.7 µM
same,TGI,[16],4.9 µM
same,TGI,[17],> 69.4 µM
same,TGI,[18],32 µM
same,TGI,[19],14 µM
CNC(=S)NNC1=NCCCN1,TGI,[1],> 100 µM
same,TGI,[2],> 100 µM
same,TGI,[3],> 100 µM
same,TGI,[4],> 100 µM
same,TGI,[5],> 100 µM
same,TGI,[6],> 100 µM
same,TGI,[7],> 100 µM
same,TGI,[8],> 100 µM
same,TGI,[9],> 100 µM
same,TGI,[10],> 100 µM
same,TGI,[11],> 100 µM
same,TGI,[12],> 100 µM
same,TGI,[13],> 100 µM
same,TGI,[14],> 100 µM
same,TGI,[15],> 100 µM
same,TGI,[16],> 100 µM
same,TGI,[17],> 100 µM
same,TGI,[18],> 100 µM
same,TGI,[19],> 100 µM
CCOC(=O)N/N=C/C1=NN(C(=O)OCC)S(=O)C1C (stereo not drawn),TGI,[1],> 100 µM
same,TGI,[2],> 100 µM
same,TGI,[3],> 100 µM
same,TGI,[4],> 100 µM
same,TGI,[5],> 100 µM
same,TGI,[6],> 100 µM
same,TGI,[7],> 100 µM
same,TGI,[8],> 100 µM
same,TGI,[9],> 100 µM
same,TGI,[10],> 100 µM
same,TGI,[11],> 100 µM
same,TGI,[12],> 100 µM
same,TGI,[13],> 100 µM
same,TGI,[14],> 100 µM
same,TGI,[15],> 100 µM
same,TGI,[16],> 100 µM
same,TGI,[17],> 100 µM
same,TGI,[18],> 100 µM
same,TGI,[19],> 100 µM
CCOC(=O)c1ccc(-c2cccs2)n1C,TGI,[1],> 100 µM
same,TGI,[2],> 100 µM
same,TGI,[3],> 100 µM
same,TGI,[4],> 100 µM
same,TGI,[5],> 100 µM
same,TGI,[6],> 100 µM
same,TGI,[7],> 100 µM
same,TGI,[8],> 100 µM
same,TGI,[9],> 100 µM
same,TGI,[10],> 100 µM
same,TGI,[11],> 100 µM
same,TGI,[12],> 100 µM
same,TGI,[13],> 100 µM
same,TGI,[14],> 100 µM
same,TGI,[15],> 100 µM
same,TGI,[16],> 100 µM
same,TGI,[17],> 100 µM
same,TGI,[18],> 100 µM
same,TGI,[19],> 100 µM
CCC(C#N)N(Cc1ccc(CN(C(=O)c2ccccc2)C(C#N)CC)cc1)C(=O)c1ccccc1 (stereo not drawn),TGI,[1],85.2 µM
same,TGI,[2],> 100 µM
same,TGI,[3],49 µM
same,TGI,[4],> 100 µM
same,TGI,[5],> 100 µM
same,TGI,[6],31.3 µM
same,TGI,[7],65.7 µM
same,TGI,[8],> 100 µM
same,TGI,[9],88.5 µM
same,TGI,[10],74.4 µM
same,TGI,[11],93.6 µM
same,TGI,[12],> 100 µM
same,TGI,[13],> 100 µM
same,TGI,[14],43.9 µM
same,TGI,[15],96.8 µM
same,TGI,[16],78.1 µM
same,TGI,[17],> 100 µM
same,TGI,[18],67.7 µM
same,TGI,[19],> 100 µM
O=C(O)c1cnccc1-c1cc(=O)[nH]n1-c1ccccc1,TGI,[1],> 100 µM
same,TGI,[2],> 100 µM
same,TGI,[3],> 100 µM
same,TGI,[4],> 100 µM
same,TGI,[5],> 100 µM
same,TGI,[6],34.3 µM
same,TGI,[7],> 100 µM
same,TGI,[8],> 100 µM
same,TGI,[9],> 100 µM
same,TGI,[10],> 100 µM
same,TGI,[11],> 100 µM
same,TGI,[12],> 100 µM
same,TGI,[13],> 100 µM
same,TGI,[14],> 67.1 µM
same,TGI,[15],> 100 µM
same,TGI,[16],> 100 µM
same,TGI,[17],> 100 µM
same,TGI,[18],> 100 µM
same,TGI,[19],> 100 µM
CCOC(=O)C(Cc1ccc(OC(=O)c2ccc(OC)cc2OC)cc1)NC(=O)C(F)(F)F (stereo not drawn),TGI,[1],> 100 µM
same,TGI,[2],> 100 µM
same,TGI,[3],29.4 µM
same,TGI,[4],43.3 µM
same,TGI,[5],83.5 µM
same,TGI,[6],43.9 µM
same,TGI,[7],34.9 µM
same,TGI,[8],79.4 µM
same,TGI,[9],59.9 µM
same,TGI,[10],42.7 µM
same,TGI,[11],47.4 µM
same,TGI,[12],51 µM
same,TGI,[13],> 100 µM
same,TGI,[14],47.1 µM
same,TGI,[15],> 100 µM
same,TGI,[16],> 100 µM
same,TGI,[17],> 100 µM
same,TGI,[18],72.8 µM
same,TGI,[19],33.8 µM
Nc1ccc(S(=O)(=O)Nc2nc3ccccc3nc2Nc2ccc(S(N)(=O)=O)cc2)cc1,TGI,[1],> 100 µM
same,TGI,[2],> 100 µM
same,TGI,[3],> 100 µM
same,TGI,[4],> 100 µM
same,TGI,[5],> 100 µM
same,TGI,[6],> 100 µM
same,TGI,[7],> 100 µM
same,TGI,[8],> 100 µM
same,TGI,[9],97.4 µM
same,TGI,[10],> 100 µM
same,TGI,[11],> 100 µM
same,TGI,[12],> 100 µM
same,TGI,[13],> 100 µM
same,TGI,[14],> 100 µM
same,TGI,[15],> 100 µM
same,TGI,[16],> 100 µM
same,TGI,[17],> 100 µM
same,TGI,[18],> 100 µM
same,TGI,[19],> 100 µM
